# ChEMBL document CHEMBL1147425, “Structure-activity relationships of non-imidazole H(3) receptor ligands. Part 3: 5-Substituted 3-phenyl-1,2,4-oxadiazoles as potent antagonists” (Bioorg Med Chem Lett, 2004)
# pKi: −log10 of the molar value.
# What was measured:
# Histamine H3 receptor [1] = biological target: Histamine H3 receptor (Homo sapiens, UniProt Q9Y5N1); assay: Binding affinity for human histamine H3 receptor on human colon cells; format: cell-based
# Histamine H3 receptor [2] = biological target: Histamine H3 receptor (Rattus norvegicus, UniProt Q9QYN8); assay: Binding affinity for rat histamine H3 receptor on rat cortical cells
# Sequence of Histamine H3 receptor (Rattus norvegicus, UniProt Q9QYN8) (Q9QYN8 whole entry): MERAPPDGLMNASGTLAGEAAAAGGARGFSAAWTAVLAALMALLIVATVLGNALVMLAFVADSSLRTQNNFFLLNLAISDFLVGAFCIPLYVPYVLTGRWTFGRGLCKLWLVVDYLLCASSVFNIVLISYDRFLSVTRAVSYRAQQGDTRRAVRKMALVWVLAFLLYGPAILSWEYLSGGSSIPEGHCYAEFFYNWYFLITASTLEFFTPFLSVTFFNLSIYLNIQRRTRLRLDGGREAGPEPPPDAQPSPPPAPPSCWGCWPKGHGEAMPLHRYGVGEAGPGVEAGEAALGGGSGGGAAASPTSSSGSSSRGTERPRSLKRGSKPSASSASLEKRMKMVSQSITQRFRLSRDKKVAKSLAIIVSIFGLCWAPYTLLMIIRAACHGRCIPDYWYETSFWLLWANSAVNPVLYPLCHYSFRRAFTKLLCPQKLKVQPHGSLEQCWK
# Sequence of Histamine H3 receptor (Homo sapiens, UniProt Q9Y5N1) (Q9Y5N1 whole entry): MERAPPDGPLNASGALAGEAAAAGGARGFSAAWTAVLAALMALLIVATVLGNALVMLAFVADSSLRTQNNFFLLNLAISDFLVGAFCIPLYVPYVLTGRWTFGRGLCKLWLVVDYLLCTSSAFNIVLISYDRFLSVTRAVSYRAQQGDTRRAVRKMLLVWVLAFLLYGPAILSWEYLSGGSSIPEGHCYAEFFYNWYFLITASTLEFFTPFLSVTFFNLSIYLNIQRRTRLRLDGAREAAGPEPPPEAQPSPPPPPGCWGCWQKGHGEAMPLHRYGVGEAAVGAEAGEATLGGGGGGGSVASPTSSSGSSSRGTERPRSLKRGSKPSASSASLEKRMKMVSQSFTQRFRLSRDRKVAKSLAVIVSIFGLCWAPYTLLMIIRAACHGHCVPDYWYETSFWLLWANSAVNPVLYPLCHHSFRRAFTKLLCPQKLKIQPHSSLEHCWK
SMILES,pKi (Histamine H3 receptor [1]),pKi (Histamine H3 receptor [2])
CC(C)Cc1nc(-c2ccc(OCCCN3CCCN(C(=O)[C@@H](C)NC(=O)c4ccco4)CC3)cc2F)no1,7.48,8.77
C[C@@H](NC(=O)c1ccco1)C(=O)N1CCCN(CCCOc2ccc(-c3noc(CC4CCCCC4)n3)c(F)c2)CC1,7.68,8.59
C[C@@H](NC(=O)c1ccco1)C(=O)N1CCN(CCCOc2ccc(-c3noc(C4CC4)n3)c(F)c2)CC1,7.19,8.96
C[C@H](NC(=O)OC(C)(C)C)c1nc(-c2ccc(OCCCN3CCCN(C(=O)[C@@H](C)NC(=O)c4ccco4)CC3)cc2F)no1,6.85,8.09
C[C@@H](NC(=O)c1ccco1)C(=O)N1CCCN(CCCOc2ccc(-c3noc(C4CCCCCC4)n3)c(F)c2)CC1,7.82,8.48
C[C@@H](NC(=O)CC(C)(C)C)C(=O)N1CCN(CCCOc2ccc(-c3noc(CC4CCCC4)n3)c(F)c2)CC1,7.00,8.19
C[C@@H](NC(=O)c1cccc(Cl)c1)C(=O)N1CCN(CCCOc2ccc(-c3noc(CC4CCCC4)n3)c(F)c2)CC1,7.44,8.17
C[C@@H](NC(=O)c1ccc(Br)cc1)C(=O)N1CCN(CCCOc2ccc(-c3noc(CC4CCCC4)n3)c(F)c2)CC1,7.74,8.21
CC(C)C(NC(=O)OC(C)(C)C)c1nc(-c2ccc(OCCCN3CCCN(C(=O)[C@@H](C)NC(=O)c4ccco4)CC3)cc2F)no1 (stereo not given in full),6.77,8.01
COc1cccc(C(=O)N[C@H](C)C(=O)N2CCN(CCCOc3ccc(-c4noc(CC5CCCC5)n4)c(F)c3)CC2)c1,7.47,8.44
C[C@@H](NC(=O)c1ccco1)C(=O)N1CCCN(CCCOc2ccc(-c3noc(-c4ccccc4)n3)c(F)c2)CC1,8.07,8.39
C[C@@H](NC(=O)c1ccccc1F)C(=O)N1CCN(CCCOc2ccc(-c3noc(CC4CCCC4)n3)c(F)c2)CC1,7.80,8.54
C[C@@H](NC(=O)c1cccc(F)c1)C(=O)N1CCN(CCCOc2ccc(-c3noc(CC4CCCC4)n3)c(F)c2)CC1,7.74,8.42
CC(C)CCc1nc(-c2ccc(OCCCN3CCCN(C(=O)[C@@H](C)NC(=O)c4ccco4)CC3)cc2F)no1,8.07,9.25
C[C@@H](NC(=O)CCN1CCOCC1)C(=O)N1CCCN(CCCOc2ccc(-c3noc(CC4CCCC4)n3)c(F)c2)CC1,7.89,9.24
C[C@@H](NC(=O)c1ccco1)C(=O)N1CCCN(CCCOc2ccc(-c3noc(Cc4ccccc4)n3)c(F)c2)CC1,7.40,8.80
C[C@@H](NC(=O)c1ccco1)C(=O)N1CCCN(CCCOc2ccc(-c3noc(-c4cccs4)n3)c(F)c2)CC1,6.80,8.21
Cc1ccc(C(=O)N[C@H](C)C(=O)N2CCCN(CCCOc3ccc(-c4noc(CC5CCCC5)n4)c(F)c3)CC2)cc1,7.77,8.85
C[C@@H](NC(=O)C(C)(C)C)C(=O)N1CCCN(CCCOc2ccc(-c3noc(CC4CCCC4)n3)c(F)c2)CC1,7.44,8.70
C[C@@H](NC(=O)c1ccc(Cl)c(Cl)c1)C(=O)N1CCCN(CCCOc2ccc(-c3noc(CC4CCCC4)n3)c(F)c2)CC1,6.85,7.51
Cc1ccc(C)c(C(=O)N[C@H](C)C(=O)N2CCN(CCCOc3ccc(-c4noc(CC5CCCC5)n4)c(F)c3)CC2)c1,7.12,8.18
CC(C)OCc1nc(-c2ccc(OCCCN3CCCN(C(=O)[C@@H](C)NC(=O)c4ccco4)CC3)cc2F)no1,6.96,8.43
C[C@@H](NC(=O)c1ccc(C#N)cc1)C(=O)N1CCN(CCCOc2ccc(-c3noc(CC4CCCC4)n3)c(F)c2)CC1,8.02,8.92
C[C@@H](NC(=O)c1ccco1)C(=O)N1CCCN(CCCOc2ccc(-c3noc(-c4cncs4)n3)c(F)c2)CC1,6.62,8.21
CCC(CC)c1nc(-c2ccc(OCCCN3CCCN(C(=O)[C@@H](C)NC(=O)c4ccco4)CC3)cc2F)no1,7.47,8.64
C[C@@H](NC(=O)C(C)(C)C)C(=O)N1CCN(CCCOc2ccc(-c3noc(CC4CCCC4)n3)c(F)c2)CC1,6.89,8.15
C[C@@H](NC(=O)CC1CCCC1)C(=O)N1CCN(CCCOc2ccc(-c3noc(-c4ccccc4)n3)c(F)c2)CC1,6.89,7.68
C[C@@H](NC(=O)c1ccco1)C(=O)N1CCN(CCCOc2ccc(C(=O)C3CC3)c(F)c2)CC1,7.37,8.89

SMILES,pKi (Histamine H3 receptor [1]),pKi (Histamine H3 receptor [2])
C[C@@H](NC(=O)c1ccco1)C(=O)N1CCCN(CCCOc2ccc(-c3noc(-c4ccncc4)n3)c(F)c2)CC1,6.28,7.96
C[C@@H](N)C(=O)N1CCCN(CCCOc2ccc(-c3noc(C4CC4)n3)c(F)c2)CC1,6.62,8.52
CC(=O)N[C@H](C)C(=O)N1CCN(CCCOc2ccc(-c3noc(CC4CCCC4)n3)c(F)c2)CC1,6.70,8.05
CC(C)CC(=O)N[C@H](C)C(=O)N1CCCN(CCCOc2ccc(-c3noc(CC4CCCC4)n3)c(F)c2)CC1,7.89,8.96
C[C@@H](N)C(=O)N1CCN(CCCOc2ccc(-c3noc(C4CC4)n3)c(F)c2)CC1,6.25,8.51
CC(C)CCC(=O)N[C@H](C)C(=O)N1CCCN(CCCOc2ccc(-c3noc(CC4CCCC4)n3)c(F)c2)CC1,7.64,8.55
CC(C)CCC(=O)N[C@H](C)C(=O)N1CCN(CCCOc2ccc(-c3noc(-c4ccccc4)n3)c(F)c2)CC1,7.17,7.85
CCC(=O)N[C@H](C)C(=O)N1CCCN(CCCOc2ccc(-c3noc(CC4CCCC4)n3)c(F)c2)CC1,7.59,8.96
C[C@@H](NC(=O)c1ccco1)C(=O)N1CCCN(CCCOc2ccc(-c3noc(CC(C)(C)C)n3)c(F)c2)CC1,7.40,8.62
C[C@@H](NC(=O)CCN1CCOCC1)C(=O)N1CCN(CCCOc2ccc(-c3noc(CC4CCCC4)n3)c(F)c2)CC1,7.43,8.96
C[C@@H](NC(=O)c1cccc(N(C)C)c1)C(=O)N1CCN(CCCOc2ccc(-c3noc(CC4CCCC4)n3)c(F)c2)CC1,7.33,8.59
C[C@@H](NC(=O)c1ccc(F)cc1)C(=O)N1CCN(CCCOc2ccc(-c3noc(CC4CCCC4)n3)c(F)c2)CC1,7.77,8.82
C[C@@H](NC(=O)[C@H]1CCCO1)C(=O)N1CCN(CCCOc2ccc(-c3noc(-c4ccccc4)n3)c(F)c2)CC1,7.04,8.38
C[C@@H](NC(=O)c1ccco1)C(=O)N1CCCN(CCCOc2ccc(-c3noc(-c4ccoc4)n3)c(F)c2)CC1,7.07,8.77
CC(C)C(=O)N[C@H](C)C(=O)N1CCN(CCCOc2ccc(-c3noc(CC4CCCC4)n3)c(F)c2)CC1,6.64,8.10
C[C@@H](NC(=O)c1ccco1)C(=O)N1CCCN(CCCOc2ccc(-c3noc(CC4CCCC4)n3)c(F)c2)CC1,8.03,9.08
C[C@@H](NC(=O)c1cnccn1)C(=O)N1CCN(CCCOc2ccc(-c3noc(-c4ccccc4)n3)c(F)c2)CC1,7.54,8.77
C[C@@H](NC(=O)c1cccnc1)C(=O)N1CCN(CCCOc2ccc(-c3noc(CC4CCCC4)n3)c(F)c2)CC1,7.70,8.77
C[C@@H](NC(=O)c1cccc(OC(F)(F)F)c1)C(=O)N1CCN(CCCOc2ccc(-c3noc(CC4CCCC4)n3)c(F)c2)CC1,7.19,7.62
C[C@@H](NC(=O)CC(C)(C)C)C(=O)N1CCCN(CCCOc2ccc(-c3noc(CC4CCCC4)n3)c(F)c2)CC1,7.13,8.31
CC(C)CCC(=O)N[C@H](C)C(=O)N1CCN(CCCOc2ccc(-c3noc(CC4CCCC4)n3)c(F)c2)CC1,7.01,8.21
C[C@@H](NC(=O)CN1CCOCC1)C(=O)N1CCN(CCCOc2ccc(-c3noc(-c4ccccc4)n3)c(F)c2)CC1,7.04,8.09
Cc1ccccc1C(=O)N[C@H](C)C(=O)N1CCN(CCCOc2ccc(-c3noc(CC4CCCC4)n3)c(F)c2)CC1,7.89,8.62
C[C@@H](NC(=O)c1ccco1)C(=O)N1CCCN(CCCOc2ccc(-c3noc(-c4ccco4)n3)c(F)c2)CC1,6.77,8.30
CCOCC(=O)N[C@H](C)C(=O)N1CCN(CCCOc2ccc(-c3noc(-c4ccccc4)n3)c(F)c2)CC1,7.00,8.00
CC(C)CC(=O)N[C@H](C)C(=O)N1CCN(CCCOc2ccc(-c3noc(CC4CCCC4)n3)c(F)c2)CC1,6.96,8.30
C[C@@H](NC(=O)c1ccco1)C(=O)N1CCCN(CCCOc2ccc(-c3noc(C(C)(C)C)n3)c(F)c2)CC1,7.07,8.39
